From ChEMBL document CHEMBL1129048, “A novel, picomolar inhibitor of human immunodeficiency virus type 1 protease” (J Med Chem, 1996)

Key:
MT4 = experiment: In vitro effective concentration against MT-4 cell line; assay type: functional, cell-based; settings: Homo sapiens
[1] = target: Human immunodeficiency virus type 1 protease (Human immunodeficiency virus 1, UniProt Q72874); experiment: Inhibitory activity against HIV-1 Protease

Which EC50 (MT4) does the source give for `COc1cccc(CN2C(=O)N(Cc3cccc(OC)c3)N(Cc3ccccc3)C[C@@H](O)[C@H]2Cc2ccccc2)c1` here?
Its EC50 is 930 nM.

And the Ki [1]?
Its Ki is 0.22 nM.

Which EC50 (MT4) does the source give for `O=C1N(Cc2ccc(O)cc2)[C@H](Cc2ccccc2)[C@H](O)CN(Cc2ccccc2)N1Cc1ccc(O)cc1` here?
Its EC50 is 10 nM.

And the Ki [1]?
The Ki was 0.07 nM.

Which results are given for `O=C1N(Cc2ccc(CO)cc2)[C@H](Cc2ccccc2)[C@H](O)CN(Cc2ccccc2)N1Cc1ccc(CO)cc1`?
EC50 (MT4): 90 nM; Ki [1]: 0.22 nM

Which results are given for `O=C1N(Cc2ccc(CO)cc2)[C@H](Cc2ccccc2)[C@H](O)CN(Cc2ccoc2)N1Cc1ccc(CO)cc1`?
EC50 (MT4): 100 nM; Ki [1]: 0.49 nM

Which results are given for `COc1cc(CN2C(=O)N(CC3CC3)N(Cc3ccccc3)C[C@@H](O)[C@H]2Cc2ccccc2)ccc1O`?
EC50 (MT4): 170 nM; Ki [1]: 0.062 nM

For `COc1cc(CN2C(=O)N(Cc3ccc(O)c(OC)c3)N(Cc3ccccc3)C[C@@H](O)[C@H]2Cc2ccccc2)ccc1O`, which EC50 (MT4) is on record?
Its EC50 is 2 nM.

For `O=C1N(Cc2ccccc2)[C@H](Cc2ccccc2)[C@H](O)CN(Cc2ccccc2)N1Cc1ccccc1`, which EC50 (MT4) is on record?
Its EC50 is 2860 nM.

And the Ki [1]?
Its Ki is 2 nM.

`O=C1N(Cc2ccc(CO)cc2)[C@H](Cc2ccccc2)[C@H](O)[C@@H](O)[C@@H](Cc2ccccc2)N1Cc1ccc(CO)cc1` [DMP-323] was tested. Which EC50 (MT4) did it give?
Its EC50 is 30 nM.

What about the Ki [1] of the same compound?
Its Ki is 0.23 nM.
